{"source": "patent US11866692B2", "about": "“Fermentation fungal substance of astragalus membranaceus paecilomyces cicadae and its use” (BinZhou Medical University, priority 2019, dated 2024)", "tested_on": "rats with hyperuricemia", "assay": "Efficacy test in potassium oxonate-induced hyperuricemia rats (serum UA, BUN, CRE, TG)", "assay_type": "in vivo, Sprague Dawley (SD) rats", "settings": "gavage twice each day for 14 days, 300 mg·kg−1 (benzbromarone 20 mg·kg−1), serum 4 h after last administration", "procedure": "SD rats were randomly divided into normal group, hyperuricemia (HUA) model group, positive medicine control group, Astragalus membranaceus group and fungal substance A group based on body mass, with 8 rats in each group. They were used in experiments after one week of adaptive feeding in an animal room. All groups were fed with normal feed. In addition, the normal group was treated with distilled water by gavage. Other groups were treated with 300 mg·kg^−1 of potassium oxonate by gavage each day for modeling. After 1 hour, the positive medicine control group was treated with 20 mg·kg^−1 of benzbromarone by gavage, the Astragalus membranaceus group was treated with 300 mg·kg^−1 of an Astragalus membranaceus powder solution by gavage, and the fungal substance A group was treated with 300 mg·kg^−1 of a fungal substance A solution by gavage. The treatment was performed twice each day for 14 consecutive days, and the dosage was 10 mL·kg^−1. Four hours after administration on the last day, blood samples were taken from the orbital venous plexus of the rats. The blood samples were stored at 4° C. overnight, and then centrifuged to obtain serum, which was for determination of biochemical indexes. After routine calibration and quality control, the contents of uric acid (UA), urea nitrogen (BUN), creatinine (CRE) and triglyceride (TG) in serum were determined by an automatic biochemical analyzer. All test results are expressed in the form of “mean±standard deviation”. Excel and software SPSS17.0 were utilized for calculation and statistics. After all data were tested for normal distribution and homogeneity of variance, single factor analysis of variance was performed. The difference between the two groups was tested by t-test. When P<0.05, the difference was considered to be statistically significant."}
{"smiles": "CCc1oc2ccccc2c1C(=O)c1cc(Br)c(O)c(Br)c1", "note": "[benzbromarone]", "values": [{"measurement": "Serum UA level compared with the model group", "setting": "FIG. 1", "value": "significantly reduced"}, {"measurement": "Serum CRE level compared with the model group", "setting": "FIG. 3", "value": "very significantly reduced"}, {"measurement": "Serum TG level compared with the model group", "setting": "FIG. 4", "value": "significantly reduced"}]}
